The source of these data is patent publication US20080026003A1, “Methods for inhibiting pain” (The General Hospital Corporation, priority 2000, published 2008).

The subject of test [1] is p38 and ERK. The experiment in a line: MAP kinase phosphorylation in primary DRG neuron cultures. The following applies: culture. It counts as cell-based, rat. As to the method: To investigate the intracellular signaling pathway that leads to the increase in Cox-2 mRNA in the DRG neurons following treatment with IL-1β, the activation of the NFκ-B transcription factor and members of the MAP kinase family in primary DRG neurons was studied. […] Phosphorylated p38 and ERK were visualized by standard Western blot analysis and immunohistochemistry 30 minutes after administration of 10 ng/ml IL-1β to the culture medium (FIG. 12).
After CFA-induced inflammation, NGF is produced in the inflamed paw tissue and is retrogradely transported to the cell body of DRG neurons. NGF is critical for gene expression in DRG neurons and plays a major role in inflammatory pain (Lindsay et al., Nature 337: 362-364, 1989; and Woolf et al., Neuroscience 62:327-331, 1994). […] To determine whether NGF is required for the inflammation-induced activation of p38 and upregulation of VR1, NGF antiserum (i.p., 5 μl/g body weight, 84 mg/ml) was injected to neutralize endogenous NGF. […] Intrathecal injection of NGF (2 μg in 10 μl, twice a day for three days, Boeringer) increased both p-p38 levels and VR1 levels in DRG neurons. […] To test whether NGF acts via p38 to upregulate VR1, the p38 inhibitor SB203580 (1 μg) was co-administrated with NGF (twice a day for three days).

Test [2] deals with p-p38 and VR1. The experiment in a line: p-p38 and VR1 in DRG after intrathecal NGF. The following applies: intrathecal 2 μg twice a day for three days. Format: in vivo, rat. On the procedure: L4 and L5 DRGs and L4-L5 spinal cord segments were dissected. DRG and transverse spinal cord sections (20 μm) were cut and processed for immunohistochemistry using the previously described ABC method (Ji et al., Nat. Neurosci. 2:1114-1119, 1999), with polyclonal anti-p38 and phospho-p38 (1:300, New England BioLabs) and polyclonal anti-VR1 antibodies (1:5000, Kindly provided by Glaxso Welcome and Dr. David Julius). For colocalization studies, immunofluorescence was performed to analyze the double staining between antibodies reactive with phosphop38 (anti-rabbit, 1:300) and VR1 (anti-guinea pig, 1:3000, Neuromics) or P2X3 (anti-guinea pig, 1:3000, Neuromics) or NeuN (anti-mouse, 1:3000, Chemicon). This double immunofluorescence was performed as previously described (Ji et al., 2001, supra). Briefly, DRG and spinal sections were incubated with a mixture of two primary antibodies overnight at 4° C. and then incubated with a mixture of FITC- and CY3-congugated secondary antibodies (1:300, Jackson immunolab) for two hours at room temperature. A Tyramide Signal Amplification (TSA, NEN) kit was used to perform double staining with two polyclonal rabbit antibodies (phospho p38 and TrkA) as previously reported (Amaya et al., Mol. Cell Neurosci 15:331-342, 2000). The images of immunostained DRG sections were captured with a CCD camera. The intensity of immunostaining was measured with computer-assisted software (IP lab), and the number of immunoreactive neuronal profiles was counted in a blinded fashion. […] Instead, the results provide a way to evaluate differences in staining levels between control and treated animals. To prevent variations due to experimental conditions, the control and treated DRG sections were mounted on the same slides and processed under the same conditions. […] As previously reported (Ji et al., 1999, supra), every fifth section was picked from a series of consecutive DRG sections (20 μm), and four sections were included for each DRG. The percentage of immnunoreactive neuronal profiles=(number of positive stained neuronal profiles/number of total neuronal profiles)×100.
After CFA-induced inflammation, NGF is produced in the inflamed paw tissue and is retrogradely transported to the cell body of DRG neurons. NGF is critical for gene expression in DRG neurons and plays a major role in inflammatory pain (Lindsay et al., Nature 337: 362-364, 1989; and Woolf et al., Neuroscience 62:327-331, 1994). […] To determine whether NGF is required for the inflammation-induced activation of p38 and upregulation of VR1, NGF antiserum (i.p., 5 μl/g body weight, 84 mg/ml) was injected to neutralize endogenous NGF. […] Intrathecal injection of NGF (2 μg in 10 μl, twice a day for three days, Boeringer) increased both p-p38 levels and VR1 levels in DRG neurons. […]

The test system of test [3] is CFA inflamed hindpaw of rats. The experiment in a line: Mechanical (von Frey) and thermal (radiant heat) sensitivity after Cox-2 or caspase-1 inhibitor.
Protocol: Thermal sensitivity was assessed by applying a beam of radiant heat and recording the paw withdrawal latency (Decosterd et al., supra).
The test system of test [4] is Cox-2 mRNA. Description: Cox-2 mRNA in lumbar spinal cord after intraplantar CFA (RNase protection assay). It counts as in vivo, rat.
Protocol: The extent of Cox-2 induction in the central nervous system following unilateral hindpaw inflammation evoked by complete Freund's adjuvant (CFA) was investigated. CFA (100 μl, Sigma) was injected into the left rat hindpaw of rats anaesthetized with 2% halothane. The level of Cox-2 mRNA was measured using RNase protection assays which were performed on total RNA extracts from spinal cord samples using the RPA III kit (Ambion). […] At least two assays were used for each observation, and the fold change in Cox-2 mRNA levels was determined with respect to a β-actin loading control.
To further support the role of central IL-1β in induction of Cox-2, the effect of inhibiting IL-1β activity was determined.
Test [5] has as its system PGE2. Description: PGE2 levels in cerebrospinal fluid after CFA inflammation (enzyme-immunoassay). It counts as in vivo, rat. The following applies: for decrease of PGE2 levels in the cerebrospinal fluid: intrathecal.
Test [6] concerns Cox-2 mRNA. Description: Cox-2 mRNA in isolated spinal cord slice in vitro. The following applies: 200 ng/ml; in vitro spinal cord slice. It counts as cell-based, rat. On the procedure: Two mechanisms may contribute to central Cox-2 induction in response to peripheral inflammation: 1) sensory inflow from nerve fibers innervating the inflamed hindpaw or 2) circulating pro-inflammatory cytokines. To determine whether primary sensory neuron activity increases central Cox-2, an isolated adult rat spinal cord slice preparation with an attached dorsal root was analyzed (FIG. 5A). To prepare this spinal cord slice, the lumbar spinal cord from an adult rat under urethane anesthesia was removed and immersed in cold Kreb's solution. A 700-μm-thick transverse slice with attached L4 dorsal root (15-20 mm) was prepared and perfused with Kreb's solution saturated with 95% O2 and 5% CO2 at 36-37° C. (Baba et al., J Neurosci 19:859, 1999). The L4 dorsal root was electrically stimulated for 30 minutes using a suction electrode at 20 μA (0.05 ms, 50 Hz) for Aβ-fibers, 100 μA (0.05 ms, 50 Hz) for […] 1000 μA (0.5 ms, 50 Hz) for C-fibers. The slices were perfused with Kreb's solution for two hours before electrical stimulation, and for three hours after stimulation.

The test system of test [7] is CFA-induced inflammatory pain in rats. The following applies: non-inflamed animals; Ji et al., 1999; cited from earlier work.
Where [8] appears, read: intrathecal 30 μg, 48 hours after CFA-induced inflammation.

For “NGF: nerve growth factor, a known pain mediator, injected intrathecally”, the “p38 activation in adult primary DRG neurons grown in culture” value in test [1] is on record as “induced”. Moreover, in test [2], the “VR1 levels in DRG neurons” value was “increases” and the “p-p38 levels in DRG neurons” value is listed as “increases”.
In test [3] (intrathecal 1 nmol, CFA inflammation), acetyl-Tyr-Val-Ala-Asp-CHO [YVAD] showed a normalizing mechanical sensitivity of 12 fold. The “thermal withdrawal latency of the CFA inflamed hindpaw” value in test [3] (intrathecal 1 nmol, compared with vehicle) is “did not significantly affect”. Also, the “mechanical threshold of the CFA inflamed hindpaw” value in test [3] (intrathecal 1 nmol, compared with vehicle, p<0.05) was “increased”. Further, the “block of the induction of spinal Cox-2 mRNA” value in test [4] (30 minute intrathecal pretreatment, 1 nmole (0.5 μg), six hours after peripheral inflammation) is 65%. Further, the “reduction of the levels of central PGE2” value in test [5] (intrathecal pretreatment 1 nmole, 12 and 24 hours post-inflammation) is recorded as 50%. The “decrease of PGE2 levels in the cerebrospinal fluid” value came out at 50% in test [5] (12 hours post inflammation) and 70% in test [5] (24 hours post-inflammation).
Turning to “IL-1ra: recombinant IL-1β receptor antagonist (IL-1ra)”, in test [6], the “activity-evoked Cox-2 mRNA induction” value is “did not affect”. Besides, the “reduction of Cox-2 mRNA levels” value in test [4] (intrathecal 6 μg 30 minutes prior to CFA injection, six hours post-inflammation) was found to be 75%.
On to `COc1cccc(-c2cc(=O)c3ccccc3o2)c1N` [PD98059], for which, in test [7], the basal pain sensitivity result is “no significant change”.
As to `CS(=O)(=O)Nc1ccc([N+](=O)[O-])cc1OC1CCCCC1` [NS398], in test [3] (setting [8]), the “reduction of mechanical hyperalgesia” value stood at 4.2 fold and the thermal hyperalgesia entry is reported as “significantly reduced”. In test [3] (naive rats), the “mechanical or thermal pain sensitivity in naive rats” value is “did not alter”.
